Test results taken from PubChem BioAssay AID652101 (NMMLSC, 2013).
The source made the active and inactive calls.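 Rule for the calls: active = at least 15% inhibition at the top concentration together with an EC50 under 10 microM; inactive = the rest.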

Test system: not listed separately
Experiment: potency against LAMP-1 externalization in TALL-104 – TALL-104 cells, flow cytometry, CherryPick01, dose response (AID 652101);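 for inhibition: 0% = stimulated DMSO control and 100% = unstimulated control wells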
Conditions: TALL-104 lytic granule exocytosis, LAMP-1 flow cytometry; at 15.1 µM (top of the series)

Structure (SMILES) | inhibition
Cc1cccc(C)c1-n1nnnc1C(CCc1ccccc1)N1CCC(n2c(=O)[nH]c3ccccc32)CC1 (stereo not drawn) | 94.8% (inactive)
CCOc1cccc(CNCCc2c(C)[nH]c3ccc(OC(F)(F)F)cc23)c1O | 82.3% (inactive)
CCOC(=O)[C@]12Cc3cc(Cl)ccc3[C@H]1N(C1CCCCC1)C(=O)c1cc(OC)ccc12 | 102% (inactive)
COC(=O)c1ccc(NC(=O)CSc2nc3ccc(N4C(=O)C5C6C=CC(C6)C5C4=O)cc3s2)cc1 (stereo not drawn) | 92.5% (inactive)
CC(C)CNC(=O)c1c(N)n(Cc2ccc3c(c2)OCO3)c2nc3ccccc3nc12 | 69.2% (inactive)

Same assay, conditions: TALL-104 lytic granule exocytosis, LAMP-1 flow cytometry; at 15.1 µM (top of the series); stimulated with 1 µM thapsigargin, 50 nM PMA

Structure (SMILES) | inhibition
O=c1c2ccc(F)cc2sn1-c1ccccc1 | 75.9% (inactive)
Cc1cc(C(=O)CSc2nc3ccccc3[nH]2)c(C)n1CC1CCCO1 (stereo not drawn) | 89.3% (inactive)
CN(C)CCNC(=O)c1ccc(-c2cn3c(-c4ccc(Oc5ccccc5)cc4)cnc3cn2)cc1 | 81.6% (inactive)
COc1ccc(-c2cc(NC=O)c3ncc(-c4ccccc4)n3c2)cc1OC | 89.8% (inactive)
CC(=O)Nc1ccc2sn(-c3ccccc3)c(=O)c2c1 | 81.8% (inactive)
CSc1cccc(NC(=S)N(CCCN2CCCC2)Cc2cccn2Cc2ccc(Cl)cc2)c1 | 65.2% (inactive)
CCOC(=O)c1c(NC(C)=O)sc2c(OCC(O)CN(CC)CC)c(Br)ccc12 (stereo not drawn) | 88.2% (inactive)
Cc1ccc2nc(-c3ccc(NC(=S)NC4CC(C)(C)NC(C)(C)C4)cc3)sc2c1 | 5.48% (inactive)
COc1cc2c(cc1OC)C(c1ccc(-c3ccc(Cl)c(Cl)c3)o1)=NCC2 | 88.4% (inactive)
CCOC(=O)c1c(C)oc2c1c(C(c1cccnc1)N1CCOCC1)c(O)c1ccccc12 (stereo not drawn) | 95% (inactive)
c1ccc(COc2ccc(-c3cc4nc(NCCCn5ccnc5)ccn4n3)cc2)cc1 | 106% (inactive)
Cc1ccc2nc(-c3ccc(N4C(=O)CC(N5CCN(CCO)CC5)C4=O)cc3)sc2c1 (stereo not drawn) | 83.1% (inactive)
O=C(Nc1nc(-c2ccccc2)cs1)c1ccc2c(=O)n3c(nc2c1)CCCCC3 | 74.2% (inactive)
CC1(C(=O)OCC(=O)Nc2nc(-c3ccc(F)c(F)c3)cs2)CC1(Cl)Cl (stereo not drawn) | 95% (inactive)
CCCNC(=O)Cn1sc2nc(C)cc(C)c2c1=O | 97.3% (inactive)
Cc1cncn1CCc1nc2c3ccccc3nc(SCC(=O)Nc3cccc(Cl)c3)n2n1 | 104% (inactive)
Cn1cncc1C#Cc1c(-c2ccc(S(C)(=O)=O)cc2)sc2ccccc12 | 102% (inactive)
COCCNc1nc(NCc2cccc(OC)c2)c2sc(-c3ccccc3)cc2n1 | 105% (inactive)
COC(=O)c1ccc(CCc2cc(O)c(Br)cc2O)cc1 | 108% (inactive)
CCOc1ccc(C(=O)CCN2CCCCCC2)cc1 | 91.4% (inactive)
COc1cccc2c1C(=O)c1ccc3ccccc3c1C2=O | 18.2% (inactive)
CCC(C)Nc1nc(-c2cccc(OC)c2O)nc2ccccc12 (stereo not drawn) | 101% (inactive)
O=c1c2ccccc2sn1-c1ccc(Cl)cc1 | 103% (inactive)
CN1CCN(c2cc(-c3ccccc3)nc3cc(-c4ccc(F)cc4)nn23)CC1 | 61.3% (inactive)
O=C(Nc1ccc2nc(-c3cccs3)c(-c3cccs3)nc2c1)N1CCOCC1 | -2.59% (inactive)
NCCc1c(-c2ccccc2)n(-c2ccccc2)c2ccccc12 | 68.2% (inactive)

Structure (SMILES) | inhibition
CN1CCN(CCCNC(=O)c2ccc(/C=C3\Sc4ccccc4N(Cc4ccc(F)cc4)C3=O)cc2)CC1 | 89.7% (inactive)
N#Cc1c(NC(=O)c2ccc(Br)o2)n(-c2ccccc2)c2nc3ccccc3nc12 | -12.1% (inactive)
O=C1OC(c2ccccc2)(c2cc(Br)ccc2O)c2ccccc21 (stereo not drawn) | 109% (inactive)
CN(C)CCCN(C(=O)CCSc1ccccc1)c1nc2cc3c(cc2s1)OCO3 | 90.1% (inactive)
COc1ccc2nc3cc(Cl)ccc3c(Nc3ccc(O)c(CN4CCN(C)CC4)c3)c2c1 | 66.6% (inactive)
CN(C)CCC(=O)c1ccc2c(c1)OCO2 | 103% (inactive)
O=[N+]([O-])c1cccc(-c2cc(-c3cc(Br)ccc3O)[nH]n2)c1 | 67.8% (inactive)
COc1ccc(N2C(=O)CC(Sc3n[nH]c(-c4ccccc4)n3)C2=O)cc1 (stereo not drawn) | 95.2% (inactive)
Brc1ccccc1C1Nc2cccc3cccc(c23)N1 | -2.38% (inactive)
CCOc1ccc(-c2cc(C(=O)NCCCn3ccnc3)c3cc(Br)ccc3n2)cc1 | 25.6% (inactive)
CC(C)(c1ccccc1)c1ccc(OCC(O)CNC2CCN(Cc3ccccc3)CC2)cc1 (stereo not drawn) | 31.5% (inactive)
COC(=O)c1ccc(NCc2c(O)ccc(O)c2Br)cc1Cl | 72.6% (inactive)
CC(Nc1nc(N2CCNCC2)nc2ccccc12)c1ccccc1 (stereo not drawn) | 104% (inactive)
CCOc1cc(CNCCc2ccc(S(N)(=O)=O)cc2)ccc1OCc1ccc(Cl)cc1 | 48.5% (inactive)
O=CNc1cc(-c2ccsc2)cn2c(-c3ccccc3)cnc12 | 105% (inactive)
Cn1c(=O)c(NC2CCCCC2)c2c3c(cccc31)C(=O)c1ccccc1-2 | -4.68% (inactive)
O=C(Nc1ccc2nc(-c3cccs3)c(-c3cccs3)nc2c1)NC1CC1 | 68.3% (inactive)
CCOc1ccc2nc(N(CCCN(C)C)C(=O)c3ccc(S(=O)(=O)N4CCc5ccccc5C4)cc3)sc2c1 | 37% (inactive)
CCOc1ccccc1CNC(=O)C1CCN(c2nnc(C)c3c(C)n(-c4ccc(C)cc4)nc23)CC1 | 59.4% (inactive)
CCOc1ccc(Cl)cc1-c1cc(C(=O)NCc2cccs2)[nH]n1 | 79.8% (inactive)
CCOC(=O)c1c(CSc2ccccc2)n(C)c2cc(Br)c(O)c(CN(C)C)c12 | 20.5% (inactive)
CC(C)c1ccccc1OCC(O)CN(CC(O)COc1cccc2ccccc12)C(C)C (stereo not drawn) | 101% (inactive)
Cn1c(=O)c(N)c2c3c(c(Br)ccc31)C(=O)c1ccccc1-2 | 1.57% (inactive)
COc1ccc(-c2cc(NC=O)c3ncc(-c4cccc(OC)c4)n3c2)cc1 | 101% (inactive)
CCCCNc1c(-c2ccc(OC)c(SC3CCCCC3)c2)nc2ccc(C)cn12 | 103% (inactive)
O=c1c2cc(F)ccc2sn1-c1ccccc1Cl | 95.2% (inactive)

Structure (SMILES) | inhibition
COc1ccc(C2CC(c3cccs3)=NN2c2nc(C)c(C(C)=O)s2)cc1OC (stereo not drawn) | 2.08% (inactive)
C=CCNc1nc(NCc2ccc(N(C)C)cc2)c2sc(-c3ccccc3)cc2n1 | -13.9% (inactive)
Cc1ccc(-c2nn(-c3ccccc3)cc2CNCc2ccccc2)cc1 | 99.5% (inactive)
Nc1c(C(=O)NCc2ccc(F)cc2)c2nc3ccccc3nc2n1CCCN1CCOCC1 | 72.5% (inactive)
COc1ccc(N(CC(=O)NCCSc2ccccn2)S(=O)(=O)c2ccccc2)c(OC)c1 | -7.92% (inactive)
COc1ccc2sc(N(CCCN(C)C)C(=O)c3ccc(S(=O)(=O)N4CCc5ccccc5C4)cc3)nc2c1 | 50% (inactive)
OC(CNCC(c1ccc(Cl)cc1Cl)c1c[nH]c2ccccc12)c1ccccc1 (stereo not drawn) | 81.7% (inactive)
Cc1ccc(-c2nn(-c3ccccc3)cc2CN(Cc2ccccc2)C(=O)c2ccco2)o1 | 105% (inactive)
C=C(C)COc1ccc(-c2n[nH]c(C)c2-c2ccc(OC)cc2)c(O)c1 | 106% (inactive)
CC(=O)Nc1ccc2c(=O)n(-c3ccccc3)sc2c1 | 67.8% (inactive)
CCCCN(CCCC)c1nc(-c2ccncc2)nc2ccccc12 | 85.6% (inactive)
Cc1c(C(=O)OCC(=O)Nc2cccc(S(N)(=O)=O)c2)oc2c1ccc1ccccc12 | 104% (inactive)
CCN(CC)CCOC(=O)c1ccc(N/C=C(/C#N)c2nc(-c3ccc(OC)cc3)cs2)cc1 | 56.9% (inactive)
O=C1ON=C(c2ccccc2)/C1=C/c1ccc(-c2ccccc2[N+](=O)[O-])o1 | 102% (inactive)
CN1CCN(c2ccc(NC(=O)c3ccc(-c4ccc(Cl)cc4)o3)cc2)CC1 | 97.9% (inactive)
Cc1ccc(Cl)cc1-c1cc(C(=O)NCc2ccc(C(F)(F)F)cc2)[nH]n1 | 103% (inactive)
CCCCCc1c(-c2cccc(F)c2)ncn1CCc1ccccc1OC | 102% (inactive)
Cc1ccc2c3c(cccc13)-c1ccccc1C2=O | 4.2% (inactive)
CN(C)CCCNC(=S)NCC(c1ccc(Cl)cc1Cl)c1c[nH]c2ccccc12 (stereo not drawn) | 92.7% (inactive)
O=C(CCN1CCc2ccccc2C(c2ccccc2)C1)c1ccc2c(c1)OCCO2 (stereo not drawn) | 101% (inactive)
CCOC(=O)c1c(NC(=O)CSc2nnnn2-c2ccccc2OCC)sc2c1CC(C)(C)NC2(C)C | 84.6% (inactive)
COc1ccc(-c2cc(NC(C)=O)c3ncc(-c4ccccc4)n3c2)c(OC)c1 | 106% (inactive)
c1ccc(CCNc2ccnc3cc4ccccc4cc23)cc1 | 90.2% (inactive)
OCCN1CCN(CC(O)COc2ccc(C34CC5CC(CC(C5)C3)C4)cc2)CC1 (stereo not drawn) | 85.8% (inactive)

Test system: TALL-104 lytic granule exocytosis, LAMP-1 flow cytometry
Experiment: as above
Conditions: stimulated with 1 µM thapsigargin, 50 nM PMA

Structure (SMILES) | EC50
Cc1ccc(S(=O)(=O)n2ccc3c(OCCOCCNCc4ccc(F)cc4)cccc32)cc1 | 4.41 µM
CCOC(=O)c1c(NC(=O)COc2ccccc2OCC)sc2c1CC(C)(C)NC2(C)C | 1.2 µM
CCOc1ccc2[nH]c3c(N4CCc5ccccc5C4)ncnc3c2c1 | 4.91 µM
CCCCC[C@@H](C)N1C[C@@H](COCc2ccccc2)Oc2cc(N3CC[C@@H](N(C)C)C3)ccc2S1(=O)=O | 4.57 µM
O=c1c2ccccc2sn1-c1ccccc1F | 4.78 µM
O=c1c2ccccc2sn1-c1ccccc1 | 2.36 µM
Cc1ccc(-n2nnc3c(=O)oc4ccccc4c32)cc1 | 2.46 µM
O=C(Nc1ccc(F)cc1)c1nc(S(=O)(=O)Cc2ccccc2)ncc1Cl | 0.344 µM
COc1cccc(-c2cnc3c(NC(C)=O)cc(-c4ccccc4OC)cn23)c1 | 5.23 µM
Cc1cc(N2CCN(c3nc(-c4ccc([N+](=O)[O-])cc4)cs3)CC2)c2ccccc2n1 | 1.62 µM
CC1=C(C)CS(=O)N(S(=O)(=O)c2ccc(Cl)cc2)C1 (stereo not drawn) | 2.88 µM
COc1ccc(-n2sc3ccccc3c2=O)cc1 | 9 µM
